From PubChem BioAssay AID248 (DTP/NCI, 2004)
“And” between values parts separate entries of the source, which are not always exact repeats. Identical values can stand only once. Inconclusive results and toxic doses are left out. Rule as the data show it: active = T/C of 150% or more; inactive = T/C below 125%.

System: L1210 leukemia ip in BDF1 mice, survival T/C
Assay: NCI In Vivo Anticancer Drug Screen. Data for tumor model L1210 Leukemia (intraperitoneal) in B6D2F1 (BDF1) mice
Conditions: higher = longer survival
Procedure, shortened: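 Transplantable tumor model; survival measured in treated vs vehicle control mice. Value = treated/control.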

Measured: T/C

COc1cccc2c1C(=O)c1c(O)c3c(c(O)c1C2=O)C[C@@](O)(C(=O)CO)C[C@@H]3OC1CC(N)C(O)C(C)O1 (stereo not given in full)
inactive: endpoint: mean survival time, dose: 0.09 mg/kg/injection, schedule: Q01DX009 (ip), vehicle: saline 106 % of control | endpoint: mean survival time, dose: 0.18 mg/kg/injection, schedule: Q01DX009 (ip), vehicle: saline 107 % of control and 113 % of control | endpoint: mean survival time, dose: 0.2 mg/kg/injection, schedule: Q01DX009 (ip), vehicle: water 112 % of control | endpoint: mean survival time, dose: 0.28 mg/kg/injection, schedule: Q04DX002 (ip), vehicle: saline 110 % of control and 120 % of control | endpoint: mean survival time, dose: 0.3 mg/kg/injection, schedule: Q01DX015 (ip), vehicle: clinical formulation 116 % of control | endpoint: mean survival time, dose: 0.44 mg/kg/injection, schedule: Q01DX015 (ip), vehicle: clinical formulation 119 % of control | endpoint: mean survival time, dose: 0.5 mg/kg/injection, schedule: Q01DX003 (ip), vehicle: water 115 % of control | endpoint: mean survival time, dose: 0.5 mg/kg/injection, schedule: Q## X Z (ip), vehicle: water 113 % of control | endpoint: mean survival time, dose: 0.55 mg/kg/injection, schedule: Q04DX002 (ip), vehicle: saline 103 % of control and 108 % of control | endpoint: mean survival time, dose: 1.0 mg/kg/injection, schedule: Q01DX009 (sc), vehicle: clinical formulation 107 % of control | endpoint: mean survival time, dose: 1.0 mg/kg/injection, schedule: Q03HX024 (ip), vehicle: water 111 % of control | endpoint: mean survival time, dose: 1.0 mg/kg/injection, schedule: Q04DX004 (ip), vehicle: clinical formulation 117 % of control | endpoint: mean survival time, dose: 1.5 mg/kg/injection, schedule: Q01DX009 (sc), vehicle: clinical formulation 108 % of control | endpoint: mean survival time, dose: 2.0 mg/kg/injection, schedule: Q03HX024 (ip), vehicle: water 93 % of control | endpoint: mean survival time, dose: 2.2 mg/kg/injection, schedule: Q01DX009 (sc), vehicle: clinical formulation 113 % of control | endpoint: mean survival time, dose: 3.0 mg/kg/injection, schedule: Q01DX009 (ip), vehicle: saline 107 % of control | endpoint: mean survival time, dose: 3.3 mg/kg/injection, schedule: Q01DX009 (sc), vehicle: clinical formulation 117 % of control | endpoint: mean survival time, dose: 4.0 mg/kg/injection, schedule: Q01DX008 (ip), vehicle: saline 98 % of control | endpoint: mean survival time, dose: 4.9 mg/kg/injection, schedule: Q01DX009 (sc), vehicle: clinical formulation 110 % of control | endpoint: mean survival time, dose: 5.0 mg/kg/injection, schedule: Q01DX009 (ip), vehicle: saline 93 % of control | endpoint: mean survival time, dose: 20.0 mg/kg/injection, schedule: Q01DX001 (ip), vehicle: saline 108 % of control | endpoint: mean survival time, dose: 100.0 micrograms/kg/injection, schedule: Q03HX032 (ip), vehicle: clinical formulation 117 % of control | endpoint: mean survival time, dose: 150.0 micrograms/kg/injection, schedule: Q03HX032 (ip), vehicle: clinical formulation 120 % of control | endpoint: median survival time, dose: 0.12 mg/kg/injection, schedule: Q03HX008 (ip), vehicle: water 120 % of control | endpoint: median survival time, dose: 0.13 mg/kg/injection, schedule: Q03HX008 (ip), vehicle: water 119 % of control | endpoint: median survival time, dose: 0.23 mg/kg/injection, schedule: Q04DX003 (ip), vehicle: water 113 % of control | endpoint: median survival time, dose: 0.25 mg/kg/injection, schedule: Q01DX009 (ip), vehicle: water 115 % of control | endpoint: median survival time, dose: 0.28 mg/kg/injection, schedule: Q03HX008 (ip), vehicle: water 111 % of control | endpoint: median survival time, dose: 0.47 mg/kg/injection, schedule: Q03HX008 (ip), vehicle: water 111 % of control | endpoint: median survival time, dose: 0.5 mg/kg/injection, schedule: Q01DX001 (ip), vehicle: water 113 % of control and 116 % of control | endpoint: median survival time, dose: 0.5 mg/kg/injection, schedule: Q01DX009 (ip), vehicle: water 115 % of control and 119 % of control | endpoint: median survival time, dose: 0.5 mg/kg/injection, schedule: Q03HX024 (ip), vehicle: water 114 % of control | endpoint: median survival time, dose: 0.65 mg/kg/injection, schedule: Q01DX005 (sc), vehicle: water 110 % of control | endpoint: median survival time, dose: 0.65 mg/kg/injection, schedule: Q01DX009 (ip), vehicle: water 104 % of control | endpoint: median survival time, dose: 0.65 mg/kg/injection, schedule: Q03HX008 (sc), vehicle: water 110 % of control | endpoint: median survival time, dose: 0.75 mg/kg/injection, schedule: Q04DX003 (ip), vehicle: water 109 % of control | endpoint: median survival time, dose: 0.78 mg/kg/injection, schedule: Q03HX008 (ip), vehicle: water 105 % of control | endpoint: median survival time, dose: 1.0 mg/kg/injection, schedule: Q01DX009 (ip), vehicle: water 115 % of control | endpoint: median survival time, dose: 1.0 mg/kg/injection, schedule: Q03HX024 (ip), vehicle: water 93 % of control and 110 % of control | endpoint: median survival time, dose: 1.0 mg/kg/injection, schedule: Q04DX003 (ip), vehicle: water 119 % of control | endpoint: median survival time, dose: 1.0 mg/kg/injection, schedule: Q## X001 (ip), vehicle: saline 113 % of control | endpoint: median survival time, dose: 1.08 mg/kg/injection, schedule: Q01DX005 (sc), vehicle: water 105 % of control | endpoint: median survival time, dose: 1.08 mg/kg/injection, schedule: Q01DX009 (ip), vehicle: water 104 % of control and 113 % of control | endpoint: median survival time, dose: 1.17 mg/kg/injection, schedule: Q04DX003 (ip), vehicle: water 100 % of control | endpoint: median survival time, dose: 1.25 mg/kg/injection, schedule: Q04DX003 (ip), vehicle: water 115 % of control | endpoint: median survival time, dose: 1.5 mg/kg/injection, schedule: Q04DX003 (ip), vehicle: water 102 % of control | endpoint: median survival time, dose: 1.75 mg/kg/injection, schedule: Q04DX003 (ip), vehicle: water 100 % of control | endpoint: median survival time, dose: 1.8 mg/kg/injection, schedule: Q01DX001 (ip), vehicle: water 95 % of control and 113 % of control and 120 % of control | endpoint: median survival time, dose: 1.8 mg/kg/injection, schedule: Q01DX005 (sc), vehicle: water 110 % of control | endpoint: median survival time, dose: 1.8 mg/kg/injection, schedule: Q01DX009 (ip), vehicle: water 109 % of control and 113 % of control | endpoint: median survival time, dose: 1.8 mg/kg/injection, schedule: Q08DX002 (ip), vehicle: water 100 % of control and 118 % of control | endpoint: median survival time, dose: 2.0 mg/kg/injection, schedule: Q01DX009 (ip), vehicle: water 104 % of control | endpoint: median survival time, dose: 2.0 mg/kg/injection, schedule: Q## X001 (ip), vehicle: saline 118 % of control | endpoint: median survival time, dose: 2.6 mg/kg/injection, schedule: Q04DX003 (ip), vehicle: water 116 % of control | endpoint: median survival time, dose: 3.0 mg/kg/injection, schedule: Q01DX009 (ip), vehicle: water 109 % of control | endpoint: median survival time, dose: 3.0 mg/kg/injection, schedule: Q08DX002 (ip), vehicle: water 100 % of control and 118 % of control | endpoint: median survival time, dose: 3.0 mg/kg/injection, schedule: Q12DX002 (ip), vehicle: water 117 % of control | endpoint: median survival time, dose: 3.9 mg/kg/injection, schedule: Q01DX001 (ip), vehicle: water 105 % of control | endpoint: median survival time, dose: 5.0 mg/kg/injection, schedule: Q12DX002 (ip), vehicle: water 119 % of control | endpoint: median survival time, dose: 5.9 mg/kg/injection, schedule: Q04DX003 (ip), vehicle: water 111 % of control | endpoint: median survival time, dose: 6.0 mg/kg/injection, schedule: Q01DX001 (ip), vehicle: water 115 % of control | endpoint: median survival time, dose: 6.0 mg/kg/injection, schedule: Q04DX003 (ip), vehicle: water 103 % of control | endpoint: median survival time, dose: 8.0 mg/kg/injection, schedule: Q04DX003 (ip), vehicle: water 94 % of control and 97 % of control (2×) | endpoint: median survival time, dose: 8.3 mg/kg/injection, schedule: Q04DX003 (ip), vehicle: water 116 % of control | endpoint: median survival time, dose: 8.4 mg/kg/injection, schedule: Q08DX002 (ip), vehicle: water 104 % of control and 118 % of control | endpoint: median survival time, dose: 8.9 mg/kg/injection, schedule: Q04DX003 (ip), vehicle: water 100 % of control | endpoint: median survival time, dose: 10.0 mg/kg/injection, schedule: Q04DX003 (ip), vehicle: water 94 % of control and 100 % of control and 103 % of control | endpoint: median survival time, dose: 10.0 mg/kg/injection, schedule: Q08DX002 (ip), vehicle: water 111 % of control | endpoint: median survival time, dose: 12.0 mg/kg/injection, schedule: Q01DX001 (ip), vehicle: water 120 % of control | endpoint: median survival time, dose: 13.3 mg/kg/injection, schedule: Q01DX001 (ip), vehicle: water 105 % of control | endpoint: median survival time, dose: 14.0 mg/kg/injection, schedule: Q08DX002 (ip), vehicle: water 95 % of control and 104 % of control | endpoint: median survival time, dose: 24.0 mg/kg/injection, schedule: Q01DX001 (ip), vehicle: water 114 % of control

C=CCN(C(=O)C=C)C1CCCCC1
inactive: endpoint: mean survival time, dose: 50.0 mg/kg/injection, schedule: Q01DX001 (ip), vehicle: saline 98 % of control | endpoint: mean survival time, dose: 100.0 mg/kg/injection, schedule: Q01DX001 (ip), vehicle: saline 101 % of control

O=C(O)/C(Cc1cnc2ccccc2n1)=N\O
inactive: endpoint: mean survival time, dose: 100.0 mg/kg/injection, schedule: Q01DX009 (ip), vehicle: saline with Tween-80 104 % of control | endpoint: mean survival time, dose: 100.0 mg/kg/injection, schedule: Q04DX003 (ip), vehicle: saline with Tween-80 105 % of control | endpoint: mean survival time, dose: 200.0 mg/kg/injection, schedule: Q01DX009 (ip), vehicle: saline with Tween-80 104 % of control | endpoint: mean survival time, dose: 200.0 mg/kg/injection, schedule: Q04DX003 (ip), vehicle: saline with Tween-80 101 % of control | endpoint: mean survival time, dose: 400.0 mg/kg/injection, schedule: Q01DX009 (ip), vehicle: saline with Tween-80 93 % of control | endpoint: mean survival time, dose: 400.0 mg/kg/injection, schedule: Q04DX003 (ip), vehicle: saline with Tween-80 100 % of control
